Test systems include KM20L2 colon; DU-145 prostate; T-47D breast; MDA-N; RXF-631 renal.
Assay in all cases: DTP human tumour cell line panel, 48 h

Molecules are shown by their SMILES. “And” between values parts separate entries of the source, which are not always exact repeats. Equal entries are not always repeated.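 These data come from cells grown in 96-well plates and exposed to compound for 48 hours at five concentrations. GI50 marks 50% less growth. TGI is the concentration that stops growth completely.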 Some results are limits rather than exact numbers.

This passage reports TGI and GI50 results from PubChem BioAssay (NCI).

A word on the TGI: it is the concentration at which net growth stops. As a reminder, the GI50 is the concentration that inhibits growth by half.

`COc1ccc(C2=NN(c3ccccc3)C[N+](c3ccc(OC)cc3)=N2)cc1` yielded a TGI in the test with KM20L2 colon above 100 µM.

Consider `CN(C)c1ccc2nc3ccc(=[N+](C)C)cc-3sc2c1`, for which, in the test on DU-145 prostate, the GI50 was 3400 nM and 3860 nM; the TGI is 16 µM and 14.8 µM. In the test on T-47D breast, the GI50 was 360 nM and 558 nM; the TGI is 3.5 µM and 12.7 µM.

As for `CC(C)(O)CC(=O)NCCn1ccc2ncnc(Nc3ccc(Oc4cccc(C(F)(F)F)c4)c(Cl)c3)c21`, in the test with DU-145 prostate, the GI50 is 2960 nM and the TGI is above 10 µM. For the same compound, in the test on T-47D breast, the GI50 is 641 nM and the TGI is above 10 µM.

Turning to `O=C1c2c(O)cccc2C(C2OC(CO)C(O)C(O)C2O)c2cc(CO)cc(O)c21` (centres undefined), the concentration for total growth inhibition (TGI) in the test with DU-145 prostate, in the test with T-47D breast and in the test on MDA-N was above 100 µM each time.

On to `COc1ccc(OC)c(NC(=O)CCC/C(CC(=O)c2ccc(O)c(OC)c2)=N\Nc2ccc([N+](=O)[O-])cc2)c1`, for which the TGI in the test on RXF-631 renal and in the test on KM20L2 colon was above 100 µM in each case.

`CN(C(=O)c1ccco1)C(=S)N1CCN(c2ccccc2)CC1`: the TGI in the test on KM20L2 colon is above 100 µM.

In the test with KM20L2 colon, `Cc1ccccc1NC(=O)C(=O)CC(=O)c1c(C)n([O-])c2ccccc2[n+]1=O` had a TGI above 100 µM.

`CCOC(=O)C(=Cc1cccnc1C)C(=O)OCC`: the TGI was 39.7 µM in the test on RXF-631 renal and 10.7 µM in the test with KM20L2 colon.

Consider `NC(=O)c1c(NC(=O)c2ccc3c(c2)OCO3)sc2c1CCC(=O)C2`, for which, in the test on DU-145 prostate, the GI50 was 4500 nM and the TGI was above 100 µM. Besides, in the test with T-47D breast, the GI50 is 592 nM and the TGI was 3.81 µM.

With `COc1ccc(OC)c(-c2c(C#N)c(N)nc(N3CCOCC3)c2C#N)c1`, in the test with DU-145 prostate, the GI50 is above 100000 nM and the TGI is above 100 µM. Besides, in the test on T-47D breast, the GI50 was 45100 nM and the concentration for total growth inhibition (TGI) is above 100 µM.

Turning to `Cc1cccc(C(C)C)c1NC(=O)CC1C(=O)Nc2ccccc2S1(=O)=O` (centres undefined), the TGI is above 52.6 µM in the test with RXF-631 renal and 51.5 µM in the test with KM20L2 colon.

Consider `O=C1CC(S(=O)(=O)O)C=C1Nc1cccc(Cl)c1` (centres undefined), for which the TGI in the test on KM20L2 colon is above 100 µM.

As to `CN(C)c1ccc2c(c1)OC(N)=C(C#N)C2c1ccc2c(c1)CCO2` (centres undefined), in the test on DU-145 prostate, the GI50 is 229 nM. In addition, the TGI in the test on DU-145 prostate is above 100 µM; with T-47D breast, 56.4 µM.

With `CCCCN(CCCC)c1ccc(C(=N)c2ccc(N(CCCC)CCCC)cc2)cc1`, the GI50 in the test with DU-145 prostate is 651 nM; with T-47D breast, 353 nM. Further, the TGI with DU-145 prostate is 1.79 µM; in the test on T-47D breast, 1.39 µM.

Regarding `CN1CC[C@@H](c2c(O)cc(O)c3c(=O)cc(-c4ccccc4Cl)oc23)[C@@H]1CO`, the results for the GI50 in the test on DU-145 prostate and in the test on T-47D breast were 365 nM and 245 nM, respectively. Further, the results for the TGI in the test with DU-145 prostate and in the test with T-47D breast were above 10 µM and 1.1 µM, respectively.

Turning to `C1=C2/CC[C@H](Sc3ccccc3)[C@H]2C2(CCCCC/1)OCCO2`, in the test with KM20L2 colon, the TGI came out at 45.3 µM.

As to `C/C=C(/COC(C)=O)C(=O)OC1C=C(C=O)C(C)(C)C=C1C` (centres undefined), the TGI with DU-145 prostate, with T-47D breast and in the test on MDA-N was above 100 µM throughout.

`N#CC(c1nc2ccccc2nc1Cl)S(=O)(=O)c1ccccc1` (centres undefined) registered a concentration for total growth inhibition (TGI) in the test with KM20L2 colon above 100 µM.

Turning to `COc1ccc(C(=O)c2cc3c(N)c(C(=O)Nc4cccc5ccccc45)sc3nc2C)cc1`, the GI50 with DU-145 prostate was 190 nM; in the test on T-47D breast, 355 nM. The TGI in the test with DU-145 prostate and with T-47D breast was above 50 µM throughout.

In the case of `O=CN/C=C/c1ccc(O)c(O)c1`, the TGI with RXF-631 renal and with KM20L2 colon was above 100 µM in each case.

`O=CC1CCCc2ccccc21` (centres undefined) yielded a TGI in the test with KM20L2 colon above 100 µM.

As to `COc1cccc(-n2ncc3c(N/N=C/c4ccncc4)ncnc32)c1`, the values for the GI50 in the test with DU-145 prostate and in the test on T-47D breast were 4550 nM and above 25000 nM, respectively. For the same compound, the TGI in the test with DU-145 prostate and with T-47D breast was above 25 µM each time.

In turn, `COc1ccc(C(C#N)Cc2cc(OC)c(OC)c(OC)c2)cc1` (centres undefined) yielded a TGI in the test with RXF-631 renal above 100 µM.

`O=C(COc1ccc(/C=C2\Oc3ccccc3C2=O)cc1)Nc1nc2c(s1)CCCC2`: the GI50 with DU-145 prostate is 417 nM; with T-47D breast it was 48400 nM. The concentration for total growth inhibition (TGI) is 27.4 µM with DU-145 prostate and above 100 µM in the test on T-47D breast.

Consider `Cc1ccc(N2C(=O)C3C=CC(n4[nH]c(=O)n(Cc5ccccc5)c4=O)CC3C2=O)cc1` (centres undefined), for which the TGI in the test on KM20L2 colon was above 100 µM.

As to `Cn1cc(C2=C(c3cccc(OCC(O)CO)c3)C(=O)NC2=O)c2ccccc21` (centres undefined), in the test with DU-145 prostate, the GI50 was above 25000 nM and the TGI is above 25 µM. In the test on T-47D breast, the GI50 was above 25000 nM and the TGI is above 25 µM.

Turning to `COc1ccc(C(=O)C(c2ccc(OC)cc2)C2(O)C(=O)Nc3c2ccc(Cl)c3C)cc1` (centres undefined), the TGI in the test with RXF-631 renal and in the test on KM20L2 colon was above 100 µM throughout.

On to `COC(=O)C1=CC2C(=O)OC1CC2C#N` (centres undefined), for which the TGI in the test on KM20L2 colon is above 100 µM.

For the compound `CCOC(=O)NC(=O)c1cn(CCN2CCN(c3ncnc4nc[nH]c34)CC2)c(=O)[nH]c1=O`, the TGI with RXF-631 renal and in the test with KM20L2 colon was above 100 µM each time.

In the test on KM20L2 colon, `CN(/N=C/c1cccc2cccnc12)c1ccccc1` registered a TGI above 100 µM.

Consider `C=C1c2[nH]c3c([N+](=O)[O-])c(OC)ccc3c2CCN1C(C)=O`, for which the TGI in the test on KM20L2 colon was above 100 µM.

On to `CCc1ccc(NC(=O)COC(=O)c2cc([N+](=O)[O-])ccc2Sc2nnnn2C)cc1`, for which, in the test on DU-145 prostate, the GI50 is 4900 nM and the TGI stood at 28.2 µM. Moreover, in the test with T-47D breast, the GI50 is 18500 nM and the TGI is 82.4 µM.

As to `CC[C@H](CO)Nc1nc(NCc2ccccc2)n2ncc(C(C)C)c2n1`, the GI50 in the test with DU-145 prostate was 1300 nM; in the test on T-47D breast, 2480 nM. Further, the results for the TGI with DU-145 prostate and with T-47D breast were 9.52 µM and 13.3 µM, respectively.

In the case of `CCOc1ccccc1N=Nc1c(C)[nH]n(-c2nc(-c3ccccc3)cs2)c1=O`, the GI50 in the test on DU-145 prostate is 53200 nM; in the test with T-47D breast it was 30100 nM. For the same compound, the TGI with DU-145 prostate and in the test on T-47D breast was above 100 µM in each case.

For the compound `COc1cc(C(=O)NC2CCN(C)CC2)c(F)cc1Nc1ncc2c(n1)N(C1CCCC1)CC(F)(F)C(=O)N2C`, the GI50 is 17.9 nM in the test with DU-145 prostate and below 31.5 nM in the test on T-47D breast. The results for the TGI in the test with DU-145 prostate and in the test on T-47D breast were 11.2 µM and 13 µM, respectively.
